Laboratory results published in patent US7531555B2, “Compositions and methods for selective inhibition of nicotine acetylcholine receptors” (University of Florida Research Foundation, Inc., priority 2003, dated 2009).
Where “and” joins values, the source holds several entries; their conditions need not be identical. Equal values may be shown once. Read-outs that look alike come from different tables or passages of the source.

Columns and labels:
Rat α4β2 = molecular target: T1, Rat α4β2 (Rattus norvegicus, UniProt P09483+P12390); experiment: Voltage clamp of Xenopus oocytes expressing α4β2 nAChR; type: cell-based
T1 construct: expressed in transfected cells; host or cells: Xenopus laevis oocytes injected with subunit cRNAs; clones from Dr. Jim Boulter (UCLA)
Procedure: (§1) Mature (>9 cm) female Xenopus laevis African frogs (NASCO, Ft. Atkinson, Wis.) were used as a source of oocytes. Prior to surgery, frogs were anesthetized by placing the animal in a 1.5 g/l solution of MS222 (3-aminobenzoic acid ethyl ester) for 30 minutes. Oocytes were removed from an incision made in the abdomen.
(§2) In order to remove the follicular cell layer, harvested oocytes were treated with 1.25 mg/ml collagenase from Worthington Biochemical Corporation (Freehold, N.J.) for 2 hours at room temperature in calcium-free Barth's solution (88 mM NaCl, 10 mM HEPES pH 7.6, 0.33 mM MgSO4, 0.1 mg/ml gentamicin sulfate). Subsequently, stage 5 oocytes were isolated and injected with 50 nl (5-20 ng) each of the appropriate subunit cRNAs. Recordings were made 2 to 15 days after injection.
(§3) Rat neuronal nAChR clones and mouse muscle nAChR cDNA clones were used. The wild-type clones were obtained from Dr. Jim Boulter (UCLA). The rat α6/3 (Dowell et al. J Neurosci, 2003, 23:8445-8452) clone was obtained from Michael McIntosh (University of Utah) and expressed in Xenopus oocytes in combinations with rat β2 and β3. […] The TM2 domain is understood to line the pore of the channel, with alpha helix structure. The 7′ position may actually be directed away from the actual pore lining, but this residue is highly conserved in all of the nAChR. It is valine in all of them except α9 (isoleucine) and β1, where it is alanine. The TM2 mutation in the α6/3 chimera was corrected by using QuickChange (Stratagene) according to their protocols. The corrected α6/3 chimera sequence was confirmed by restriction diagnostics and by automated fluorescent sequencing (University of Florida core facility). The corrected clone was expressed as above in Xenopus oocytes with β2 and β3 and compared to the wild-type α3 co-expressed with β2 and β3.
(§4) After linearization and purification of cloned cDNAs, RNA transcripts were prepared in vitro using the appropriate mMessage mMachine kit from Ambion Inc. (Austin, Tex.).
(§5) Electrophysiology. The majority of experiments were conducted using OpusXpress 6000A (Axon Instruments, Union City Calif.). OpusXpress is an integrated system that provides automated impalement and voltage clamp of up to eight oocytes in parallel. Cells were automatically perfused with bath solution, and agonist solutions were delivered from a 96-well plate. Both the voltage and current electrodes were filled with 3 M KCl. The agonist solutions were applied via disposable tips, which eliminated any possibility of cross-contamination. Drug applications alternated between ACh controls and experimental applications. Flow rates were set at 2 ml/min for experiments with α7 receptors and 4 ml/min for other subtypes. Cells were voltage-clamped at a holding potential of −60 mV. Data were collected at 50 Hz and filtered at 20 Hz. Agonist applications were 12 seconds in duration followed by 181-second washout periods for α7 receptors and 8 seconds with 241-second wash periods for other subtypes. For some experiments, particularly under conditions where residual inhibition precluded making repeated measurements from single cells (see below), manual oocyte recordings were made as previously described (Papke and Papke Br J of Pharmacol, 2002, 137:49-61). In brief, Warner Instruments (Hamden, Conn.) OC-725C oocyte amplifiers were used, and data were acquired with a minidigi or digidata 1200A with pClamp9 software (Axon Instruments). Sampling rates were between 10 and 20 Hz and the data were filtered at 6 Hz. Cells were voltage clamped at a holding potential of −50 mV.
(§6) Experimental protocols and data analysis. Each oocyte received two initial control applications of ACh, an experimental drug application (or co-application of ACh and TMPH), and then follow-up control application(s) of ACh. The control ACh concentrations for α1β1γδ, α3β4, α4β2, α3β2, α3β2α5, α3β2β3, α6/3β2β3 α6β4β3 and α7, receptors were 30 μM, 100 μM, 10 μM, 30 μM, 1 μM 100 μM 100 μM 100 μM and 300 μM, respectively. […]

[1] = molecular target: T2, mouse muscle-type (α1β1εδ) nAChR (Mus musculus, UniProt P02716+P04756+P09690+P20782); experiment: Voltage clamp of Xenopus oocytes expressing muscle-type nAChR; type: cell-based
T2 construct: expressed in transfected cells; host or cells: Xenopus laevis oocytes injected with subunit cRNAs; clones from Dr. Jim Boulter (UCLA)

rats = experiment: Nicotine drug discrimination in rats; type: in vivo
Procedure: Animals. Male ICR mice (20-25 g) obtained from Harlan Laboratories (Indianapolis, Ind.) were used throughout the study. Animals were housed in groups of six and had free access to food and water. Adult, male Long-Evans rats (350-460 g), obtained from Harlan (Dublin, Va.), were individually housed in a temperature-controlled (20-22° C.) environment with a 12-hour light-dark cycle (lights on at 7 a.m.). Rats were maintained within the indicated weight range by restricted post-session feeding and had ad libitum water in their home cages. Rats were drug-naive at the beginning of the study. Animals were housed in an AALAC approved facility and the study was approved by the Institutional Animal Care and Use Committee of Virginia Commonwealth University.
Statistical analysis. Statistical analysis of all analgesic and in vivo studies was performed using either t-test or analysis of variance (ANOVA) with Tukey's test post hoc test when appropriate. All differences were considered significant at p<0.05. AD50 values with 95% CL for behavioral data were calculated by unweighted least-squares linear regression as described by Tallarida and Murray (Tallarida and Murray Manual of Pharmacological Calculations with Computer Programs. 1987, Springer-Verlag, New York).

Rat α3β4 = molecular target: T3, Rat α3β4 (Rattus norvegicus, UniProt P04757+P12392); experiment: Voltage clamp of Xenopus oocytes expressing α3β4 nAChR; type: cell-based
T3 construct: expressed in transfected cells; host or cells: Xenopus laevis oocytes injected with subunit cRNAs; clones from Dr. Jim Boulter (UCLA)
Procedure: as §1, §2, §3, §4, §5, §6

[2] = molecular target: T4, α7 homomeric neuronal nAChR (Rattus norvegicus, UniProt Q05941); experiment: Voltage clamp of Xenopus oocytes expressing α7 nAChR; type: cell-based
T4 construct: expressed in transfected cells; host or cells: Xenopus laevis oocytes injected with cRNA; clone from Dr. Jim Boulter (UCLA)
Procedure: as §1, §2, §3, §4, §5, §6

[3] = inhibition still present after 5-minute wash, read-out: IC50 (recovery)

T1 sequence (P09483 31-630): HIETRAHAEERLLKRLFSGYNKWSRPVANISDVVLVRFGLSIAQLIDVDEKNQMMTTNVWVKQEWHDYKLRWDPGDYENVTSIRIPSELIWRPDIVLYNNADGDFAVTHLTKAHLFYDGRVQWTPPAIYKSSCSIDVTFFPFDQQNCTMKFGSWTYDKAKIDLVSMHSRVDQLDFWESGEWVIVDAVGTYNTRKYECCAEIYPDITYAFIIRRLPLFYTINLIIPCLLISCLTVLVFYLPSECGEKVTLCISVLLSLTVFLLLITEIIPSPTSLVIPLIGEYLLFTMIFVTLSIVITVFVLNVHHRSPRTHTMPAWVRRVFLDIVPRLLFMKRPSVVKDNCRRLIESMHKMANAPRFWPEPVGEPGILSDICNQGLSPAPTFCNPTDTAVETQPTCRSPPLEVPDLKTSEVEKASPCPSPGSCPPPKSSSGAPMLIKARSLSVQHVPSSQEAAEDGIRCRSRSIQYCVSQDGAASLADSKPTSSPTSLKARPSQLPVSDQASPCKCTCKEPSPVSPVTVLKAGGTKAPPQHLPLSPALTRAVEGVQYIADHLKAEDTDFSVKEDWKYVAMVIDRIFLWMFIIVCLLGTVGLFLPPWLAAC
T1 sequence (P12390 25-500): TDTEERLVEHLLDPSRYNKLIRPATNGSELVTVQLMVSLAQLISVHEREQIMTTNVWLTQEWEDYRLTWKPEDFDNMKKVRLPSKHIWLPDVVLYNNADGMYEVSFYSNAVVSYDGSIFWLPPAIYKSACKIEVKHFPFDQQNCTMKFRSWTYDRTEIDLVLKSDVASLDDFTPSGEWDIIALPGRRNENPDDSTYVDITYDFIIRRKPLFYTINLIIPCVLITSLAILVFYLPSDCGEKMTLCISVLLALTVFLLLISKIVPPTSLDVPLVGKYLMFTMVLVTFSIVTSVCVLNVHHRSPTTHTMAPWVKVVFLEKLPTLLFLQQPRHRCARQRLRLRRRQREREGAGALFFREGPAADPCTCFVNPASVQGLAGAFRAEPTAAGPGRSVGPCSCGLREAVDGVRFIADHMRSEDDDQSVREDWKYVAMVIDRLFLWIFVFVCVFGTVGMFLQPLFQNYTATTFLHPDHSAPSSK
T3 sequence (P04757 26-499): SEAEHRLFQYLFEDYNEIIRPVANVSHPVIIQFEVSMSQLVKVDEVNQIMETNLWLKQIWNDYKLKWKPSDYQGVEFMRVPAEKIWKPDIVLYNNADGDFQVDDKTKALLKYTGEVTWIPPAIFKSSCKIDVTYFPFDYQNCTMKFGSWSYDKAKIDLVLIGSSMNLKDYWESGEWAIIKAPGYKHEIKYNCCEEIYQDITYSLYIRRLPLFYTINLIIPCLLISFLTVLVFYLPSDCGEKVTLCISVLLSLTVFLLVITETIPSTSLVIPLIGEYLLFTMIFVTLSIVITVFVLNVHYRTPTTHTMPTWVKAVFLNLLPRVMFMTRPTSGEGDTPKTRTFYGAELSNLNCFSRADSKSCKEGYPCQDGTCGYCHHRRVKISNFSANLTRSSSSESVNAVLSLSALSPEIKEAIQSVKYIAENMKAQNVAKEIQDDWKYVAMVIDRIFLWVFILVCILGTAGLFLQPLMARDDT
T3 sequence (P12392 21-495): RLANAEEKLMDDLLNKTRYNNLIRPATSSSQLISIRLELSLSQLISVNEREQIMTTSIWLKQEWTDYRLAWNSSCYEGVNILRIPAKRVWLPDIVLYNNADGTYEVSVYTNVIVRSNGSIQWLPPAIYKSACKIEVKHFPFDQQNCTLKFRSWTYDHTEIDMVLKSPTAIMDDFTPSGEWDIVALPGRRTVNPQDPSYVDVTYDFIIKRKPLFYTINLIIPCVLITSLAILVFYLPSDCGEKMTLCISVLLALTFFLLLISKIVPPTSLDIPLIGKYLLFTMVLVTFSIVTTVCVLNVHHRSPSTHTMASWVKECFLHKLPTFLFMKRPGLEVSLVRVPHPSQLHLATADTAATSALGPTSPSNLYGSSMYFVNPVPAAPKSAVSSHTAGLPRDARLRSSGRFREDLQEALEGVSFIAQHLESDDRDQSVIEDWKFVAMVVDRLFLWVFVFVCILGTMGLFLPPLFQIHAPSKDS
T2 sequence (P04756 21-457): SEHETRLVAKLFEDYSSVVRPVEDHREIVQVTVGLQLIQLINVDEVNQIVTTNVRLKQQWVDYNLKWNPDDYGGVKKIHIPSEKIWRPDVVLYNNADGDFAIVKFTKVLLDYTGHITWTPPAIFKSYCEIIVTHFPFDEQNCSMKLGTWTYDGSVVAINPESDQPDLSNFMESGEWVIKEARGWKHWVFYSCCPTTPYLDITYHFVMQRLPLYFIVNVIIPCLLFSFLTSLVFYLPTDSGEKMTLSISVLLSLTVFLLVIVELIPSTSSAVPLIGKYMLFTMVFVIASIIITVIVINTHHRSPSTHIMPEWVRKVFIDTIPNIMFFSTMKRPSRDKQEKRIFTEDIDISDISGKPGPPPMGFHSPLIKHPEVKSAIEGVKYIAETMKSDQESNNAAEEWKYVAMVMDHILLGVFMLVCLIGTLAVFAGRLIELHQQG
T2 sequence (P09690 24-501): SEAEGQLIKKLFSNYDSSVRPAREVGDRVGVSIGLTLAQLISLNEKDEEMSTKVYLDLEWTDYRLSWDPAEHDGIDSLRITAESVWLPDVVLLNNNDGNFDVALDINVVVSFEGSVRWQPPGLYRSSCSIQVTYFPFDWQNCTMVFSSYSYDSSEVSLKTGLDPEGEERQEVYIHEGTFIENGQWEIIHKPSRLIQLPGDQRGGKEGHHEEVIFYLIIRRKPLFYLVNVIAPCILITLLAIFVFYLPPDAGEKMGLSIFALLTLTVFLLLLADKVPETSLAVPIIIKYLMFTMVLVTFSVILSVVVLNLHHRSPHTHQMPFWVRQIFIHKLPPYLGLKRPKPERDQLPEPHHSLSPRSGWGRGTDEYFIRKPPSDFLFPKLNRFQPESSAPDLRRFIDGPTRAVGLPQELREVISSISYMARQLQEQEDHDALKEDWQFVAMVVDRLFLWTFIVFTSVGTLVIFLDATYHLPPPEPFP
T2 sequence (P20782 21-493): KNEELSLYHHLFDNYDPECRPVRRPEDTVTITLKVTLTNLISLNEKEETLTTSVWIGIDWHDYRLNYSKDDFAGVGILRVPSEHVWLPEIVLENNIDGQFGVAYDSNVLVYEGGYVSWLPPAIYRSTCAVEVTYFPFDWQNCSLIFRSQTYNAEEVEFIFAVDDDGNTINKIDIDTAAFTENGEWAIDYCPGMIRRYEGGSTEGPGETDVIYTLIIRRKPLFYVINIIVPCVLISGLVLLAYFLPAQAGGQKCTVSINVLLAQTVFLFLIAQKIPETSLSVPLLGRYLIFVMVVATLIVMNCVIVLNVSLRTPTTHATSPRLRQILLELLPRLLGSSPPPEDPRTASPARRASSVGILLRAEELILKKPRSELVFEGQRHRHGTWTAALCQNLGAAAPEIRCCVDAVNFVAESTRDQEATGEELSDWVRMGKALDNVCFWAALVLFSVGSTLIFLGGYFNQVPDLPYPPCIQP
T2 sequence (P02716 25-520): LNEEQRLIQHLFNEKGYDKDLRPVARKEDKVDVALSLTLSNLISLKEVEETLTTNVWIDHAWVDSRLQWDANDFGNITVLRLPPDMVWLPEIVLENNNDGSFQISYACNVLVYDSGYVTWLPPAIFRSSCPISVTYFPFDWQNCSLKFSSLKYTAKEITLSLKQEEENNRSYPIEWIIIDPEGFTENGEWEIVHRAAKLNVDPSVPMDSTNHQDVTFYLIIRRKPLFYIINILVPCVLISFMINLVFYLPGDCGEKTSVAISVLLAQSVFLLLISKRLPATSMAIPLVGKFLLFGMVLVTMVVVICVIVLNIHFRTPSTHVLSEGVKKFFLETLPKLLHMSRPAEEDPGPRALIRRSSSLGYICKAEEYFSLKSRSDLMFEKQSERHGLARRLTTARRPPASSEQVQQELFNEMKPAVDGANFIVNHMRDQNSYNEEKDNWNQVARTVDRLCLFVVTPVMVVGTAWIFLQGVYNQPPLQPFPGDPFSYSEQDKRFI
T4 sequence (Q05941 23-502): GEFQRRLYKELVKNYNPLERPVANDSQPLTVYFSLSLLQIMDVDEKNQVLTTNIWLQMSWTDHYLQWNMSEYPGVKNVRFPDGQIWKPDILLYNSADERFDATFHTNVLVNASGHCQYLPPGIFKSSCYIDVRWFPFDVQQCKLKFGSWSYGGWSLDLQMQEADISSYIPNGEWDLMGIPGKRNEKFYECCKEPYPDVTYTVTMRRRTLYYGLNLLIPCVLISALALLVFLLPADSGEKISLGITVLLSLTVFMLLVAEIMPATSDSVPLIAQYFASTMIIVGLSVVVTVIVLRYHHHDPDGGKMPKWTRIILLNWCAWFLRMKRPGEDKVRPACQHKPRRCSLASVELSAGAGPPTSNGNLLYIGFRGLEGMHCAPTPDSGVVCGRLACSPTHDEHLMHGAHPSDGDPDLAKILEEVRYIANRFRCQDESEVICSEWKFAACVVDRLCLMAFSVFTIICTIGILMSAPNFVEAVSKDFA

Structure (SMILES): CCCCCCC(=O)OC1CC(C)(C)NC(C)(C)C1 [TMPH, 2,2,6,6-tetramethylpiperidin-4-yl heptanoate]
- inhibition at 0.1 µM (Rat α4β2; 100 nM TMPH, after 3 applications at 10-minute intervals, read-out: inhibition after repeated co-applications of ACh with TMPH): 90%
- use-independent inhibition, TMPH applied alone (Rat α4β2; 1 μM TMPH alone versus co-applied with ACh): almost as effective as when co-applied with ACh
- IC50 (Rat α4β2; decrease in net charge, 10 μM ACh co-applied with TMPH, single co-application, read-out: IC50 (area)): 100 nM and 110 nM
- IC50 (Rat α4β2; decrease in peak current amplitude, 10 μM ACh co-applied with TMPH, read-out: IC50 (peak)): 1400 nM
- reversibility of inhibition (Rat α4β2; following a 5-minute wash): virtually no recovery
- IC50 (Rat α4β2; from shift of the net charge inhibition curve so that 100 nM is the IC90, read-out: equilibrium IC50): ~10 nM
- IC50 (Rat α4β2; [3]): 250 ± 80 nM
- IC50 net charge/IC50 peak (Rat α4β2; ratio): 0.08
- IC50 recovery/IC50 net charge (Rat α4β2; ratio): 2.3
- reversibility of inhibition ([1]; after a 5-minute wash): readily reversible
- IC50 ([1]; decrease in net charge, ACh co-applied with TMPH, read-out: IC50 (area)): 390 ± 50 nM
- IC50 ([1]; decrease in peak current amplitude, ACh co-applied with TMPH, read-out: IC50 (peak)): 276 ± 20 nM
- IC50 [1, 3]: 27000 ± 5500 nM
- IC50 net charge/IC50 peak ([1]; ratio): 1.4
- IC50 recovery/IC50 net charge ([1]; ratio): 69
- effect of TMPH-nicotine combination on response rates (rats; compared to vehicle, any dose combination tested, p>0.05): did not alter response rates
- nicotine-lever responding by TMPH alone (rats; doses at which antagonism was observed (data not shown)): did not produce nicotine-lever responding
- reversibility of inhibition (Rat α3β4; after a 5-minute wash): persisted after the wash
- IC50 (Rat α3β4; decrease in net charge, 100 μM ACh co-applied with TMPH, read-out: IC50 (area)): 75 ± 23 nM
- IC50 (Rat α3β4; decrease in peak current amplitude, 100 μM ACh co-applied with TMPH, read-out: IC50 (peak)): 200 ± 50 nM
- IC50 (Rat α3β4; [3]): 85 ± 32 nM
- IC50 net charge/IC50 peak (Rat α3β4; ratio): 0.36
- IC50 recovery/IC50 net charge (Rat α3β4; ratio): 1.1
- reversibility of inhibition ([2]; after a 5-minute wash): significant recovery
- IC50 ([2]; decrease in net charge, 300 μM ACh co-applied with TMPH, read-out: IC50 (area)): 1200 ± 200 nM
- IC50 ([2]; decrease in peak current amplitude, 300 μM ACh co-applied with TMPH, read-out: IC50 (peak)): 1000 ± 100 nM
- IC50 [2, 3]: 16000 ± 4000 nM
- IC50 net charge/IC50 peak ([2]; ratio): 1.2
- IC50 recovery/IC50 net charge ([2]; ratio): 13.3
